By IC50 is commonly meant the concentration needed to halve the response being measured.

One data set has as its system Wild-type mice. Description: Gastric emptying measurements. As to conditions: 30 minutes post-gavage, vs vehicle and bisepi-6bK controls. The format is in vivo, mouse. Here is the method: Trunk blood was obtained for plasma hormone measurements using the Multiplexed Mouse Metabolic Hormone panel (Milliplex, EMD Millipore) on a Luminex FlexMap 3D instrument. Gastric emptying was measured by dissection of stomachs 30 min after an oral glucose bolus (3.0 g/kg, 10 mL/kg) in sterile saline containing 0.1 mg/mL phenol red.
Gastric emptying measurements. Mice were fasted 14 h (8 pm to 10 am). Inhibitor or vehicle alone was injected i.p. as previously described, followed 30 min later by an oral glucose bolus (3.0 g/kg, 10 mL/kg) in sterile saline containing 0.1 mg/mL phenol red. At 30 min, the stomach was promptly dissected after CO2-euthanasia and stored on ice. The stomach contents were extracted into 2.5 mL EtOH (95%) by homogenization for 1 min using a probe sonicator. Tissue debris were decanted by centrifugation at 4000 g, followed by clearing at 15000 g for 15 min. The supernatant (1 mL) was mixed with 0.5 mL of aqueous NaOH (20 mM), and incubated at −20° C. for 1 h. The solution was centrifuged at 15,000 g for 15 min, and absorbance was determined at 565 nm. The spectrophotometer was blanked with the stomach contents of a mouse treated with colorless glucose solution. The absorbance was adjusted to the amount of glucose solution dosed to each mouse. Values are reported as mean±S.E.M relative to the original phenol red glucose solution. […]

A short description of data set [1]: Liver microsome stability (1 h incubation). The note with it: after 1 h. The format is in vitro ADME.
For a further data set, the target named is IDE (Homo sapiens, UniProt P14735). Description: Protease assay with fluorogenic peptide substrate Mca-[…](Dnp)-OH (IDE species not given). On the set-up: The proteases IDE42-1019, recombinant human IDE42-1019 (R&D Systems). The format is biochemical. As to conditions: IDE. Here is the method:
All data points and error bars represent mean±SEM. Significance tests were performed using two-tail Student's t-test, and significance levels shown in the figures are p<0.05 (*) or p<0.01 (**) versus the vehicle-only control group. The in vitro selection of the DNA-templated macrocycle libraryl^16,17 used 20 μg His6-tagged mouse IDE immobilized on cobalt magnetic beads (Dynabeads, Invitrogen). IDE proteolytic activity was assayed with fluorogenic peptide Mca-[…](Dnp)-OH (R&D). IDE inhibition was confirmed using an anti-insulin antibody time-resolved FRET assay (Cysbio), and using an LCMS assay for CGRP cleavage fragments CGRP1-17 and CGRP18-37 in plasma^18. […] Protease assays with fluorogenic peptide substrates. […] (R&D). All assay data points were obtained in duplicate.

A further data set deals with T1, hIDE W199F (Homo sapiens, UniProt P14735, W199F).
T1 construct: The reported N-His6-tagged human IDE42-1019 construct; made in house; host or cells: E. coli Rosetta 2 (DE3) pLysS
Description: Small molecule-enzyme mutant complementation study. It is filed as biochemical. The note with it: W199F vs hIDE WT, batch 2. The text has this: (§1) Protease assays with fluorogenic peptide substrates. […] All assay data points were obtained in duplicate.
(§2) Site-directed mutagenesis, expression, and purification of human IDE. The reported N-His6-tagged human IDE42-1019 construct was introduced in the expression plasmid pTrcHis-A (Invitrogen) using primers for uracil-specific excision reactions (USER) by Taq (NEB) and Pfu polymerases (PfuTurbo CX®, Agilent). The IDE gene was amplified with the primers 5′-[…]-dU-[…] and 5′-[…] G-dU-[…] (underlined sequences represent overhangs, and italics highlight the PCR priming sequence). Similarly, the pTrcHis-A vector was amplified for USER cloning with the primers 5′-[…] TGA-dU-[…] CCC and 5′-[…]-dU-[…]. Mutant IDE constructs were generated by amplifying the full vector construct with USER cloning primers introducing a mutant overhang (Table 5).
(§3) All PCR products were purified on microcentrifuge membrane columns (MinElute®, Qiagen) and quantified by UV absorbance (NanoDrop). Each fragment (0.2 pmol) was combined in a 10 μL reaction mixture containing 20 units DpnI (NEB), 0.75 units of USER mix (Endonuclease VIII and Uracil-DNA Glycosylase, NEB), 20 mM Tris-acetate, 50 mM potassium acetate, 10 mM magnesium acetate, 1 mM dithiothreitol at pH 7.9 (1× NEBuffer 4). The reactions were incubated at 37° C. for 45 min, followed by heating to 80° C. and slow cooling to 30° C. (0.2° C./s). The hybridized constructs were directly used for heat-shock transformation of chemically competent NEB turbo E. coli cells according to the manufacturer's instructions. Transformants were selected on carbenicillin LB agar, and isolated colonies were cultured overnight in 2 mL LB.
(§4) The plasmid was extracted using a microcentrifuge membrane column kit (Miniprep®, Qiagen), and the sequence of genes and vector junctions were confirmed by Sanger sequencing (Table 6). The plasmid constructs were transformed by heat-shock into chemically-competent expression strain Rosetta 2 (DE3) pLysS E. coli cells (EMD Millipore), and selected on carbenicillin/chloramphenicol LB agar. Cells transformed with IDE pTrcHis A constructs were cultured overnight at 37° C. in 2 XYT media (31 g in 1 L) containing 100 μg/mL ampicillin and 34 μg/mL chloramphenicol. Expression of His6-tagged IDE proteins was induced when the culture measured OD600 ˜0.6 by addition of isopropyl-β-D-1-thiogalactopyranoside (IPTG) to 1 mM final concentration, incubated overnight at 37° C., followed by centrifugation at 10,000 g for 30 min at 4° C.
(§5) Recombinant His6-tagged proteins were purified by Ni(II)-affinity chromatography (IMAC sepharose beads, GE Healthcare®) according to the manufacturer's instructions. The cell pellets were resuspended in pH 8.0 buffer containing 50 mM phosphate, 300 mM NaCl, 10 mM imidazole, 1% Triton X-100 and 1 mM tris(2-carboxyethyl)phosphine hydrochloride (TCEP), and were lysed by probe sonication for 4 min at 4° C., followed by clearing of cell debris by centrifugation at 10,000 g for 25 min at 4° C. The supernatant was incubated with Ni(II)-doped IMAC resin (2 mL) for 3 h at 4° C. The resin was washed twice with the cell resuspension/lysis buffer, and three times with pH 8.0 buffer containing 50 mM phosphate, 300 mM NaCl,50 mM imidazole and 1 mM TCEP. Elution was performed in 2 mL aliquots by raising the imidazole concentration to 250 mM and subsequently to 500 mM in the previous buffer. The fractions were combined and the buffer was exchanged to the recommended IDE buffer (R&D) using spin columns with 100 KDa molecular weight cut off membranes (Millipore). Protein yields were typically ˜10 μg/L, and >90% purity based on gel electrophoresis analysis (Coomassie stained).

Another data set concerns the target T2, hIDE WT (Homo sapiens, UniProt P14735).
T2 construct: The reported N-His6-tagged human IDE42-1019 construct; made in house; host or cells: E. coli Rosetta 2 (DE3) pLysS
Description: Small molecule-enzyme mutant complementation study, wild type. The format is biochemical.
Text: as §1, §2, §3, §4, §5

T2 sequence (P14735 42-1019): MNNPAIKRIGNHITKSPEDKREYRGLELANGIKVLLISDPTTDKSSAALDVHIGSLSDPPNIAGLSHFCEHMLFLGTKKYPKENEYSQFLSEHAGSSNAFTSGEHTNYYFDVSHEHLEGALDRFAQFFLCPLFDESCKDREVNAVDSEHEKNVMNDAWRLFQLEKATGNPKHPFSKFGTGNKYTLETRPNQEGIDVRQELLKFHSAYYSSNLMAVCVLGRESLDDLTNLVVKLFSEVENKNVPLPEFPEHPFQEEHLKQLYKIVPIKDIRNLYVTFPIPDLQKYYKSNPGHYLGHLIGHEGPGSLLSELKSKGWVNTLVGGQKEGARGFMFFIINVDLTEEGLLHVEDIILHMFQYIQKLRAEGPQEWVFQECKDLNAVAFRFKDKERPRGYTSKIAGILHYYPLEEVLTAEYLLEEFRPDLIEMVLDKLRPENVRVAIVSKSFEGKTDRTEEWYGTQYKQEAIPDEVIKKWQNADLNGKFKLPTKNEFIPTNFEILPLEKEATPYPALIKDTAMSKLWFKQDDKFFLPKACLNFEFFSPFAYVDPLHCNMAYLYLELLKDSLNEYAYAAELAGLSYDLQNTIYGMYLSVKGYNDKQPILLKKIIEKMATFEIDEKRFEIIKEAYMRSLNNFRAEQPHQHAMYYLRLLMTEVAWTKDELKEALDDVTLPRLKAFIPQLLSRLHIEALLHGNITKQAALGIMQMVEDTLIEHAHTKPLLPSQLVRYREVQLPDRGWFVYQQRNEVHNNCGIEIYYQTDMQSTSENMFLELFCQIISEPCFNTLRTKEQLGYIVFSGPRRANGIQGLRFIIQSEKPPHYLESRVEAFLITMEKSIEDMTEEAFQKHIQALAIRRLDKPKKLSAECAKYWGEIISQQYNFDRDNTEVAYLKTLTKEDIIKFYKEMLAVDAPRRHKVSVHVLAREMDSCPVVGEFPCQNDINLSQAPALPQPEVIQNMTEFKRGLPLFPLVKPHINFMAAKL
T1 sequence (P14735 42-1019 W199F): as the sequence (P14735 42-1019) above, with W158F counted along it
Chain of IDE (P14735 42-1019): as the sequence (P14735 42-1019) above

With `NCCCC[C@@H]1NC(=O)/C=C/C(=O)N[C@H](C(N)=O)CCCCNC(=O)[C@@H](Cc2ccc(C(=O)c3ccccc3)cc2)NC(=O)[C@H](CC2CCCCC2)NC1=O` [Compound 6bK], the “slower gastric emptying of a labeled glucose solution” value in the data set with Wild-type mice was 2 fold. Besides, the “remaining after incubation with liver microsome preparations” value in data set [1] came to 78%. The IC50 on IDE came out at 50 nM.

On to `NC(=O)CCC1NC(=O)C=CC(=O)NC(C(N)=O)CCCCNC(=O)C(Cc2ccc(C(=O)c3ccccc3)cc2)NC(=O)C(CC2CCCCC2)NC1=O` (stereo not shown) [Compound 6b], for which the IC50 shift was found to be 3.0 fold on hIDE W199F, 1.0 fold on hIDE WT (batch 1 (reference)), 1.0 fold at hIDE WT (batch 2 (reference)) and 1.0 fold at hIDE WT (batch 3 (reference)).

(Values after patent publication US20160282364A1, “ASSAY FOR INSULIN-DEGRADING ENZYME (IDE) INHIBITORS” (PRESIDENT AND FELLOWS OF HARVARD COLLEGE, priority 2013, published 2016).)
